Measured values: EP4700025A1, “AMIDE COMPOUND, PHARMACEUTICAL COMPOSITION COMPRISING SAME, AND USE THEREOF” (Suzhou Genhouse Bio Co., Ltd., priority 2023, dated 2024)

How the values were obtained:
[1] = Pharmacokinetic assay in mice; format: in vivo, Balb/c mice; conditions: male, Balb/c, plasma, mouse
Protocol: Eighteen male Balb/c mice aged 6 to 8 weeks were randomly divided into 2 groups (IV group and PO group). The corresponding compounds were administered to the animals in the IV group by tail intravenous injection at 2 mg/kg, and the corresponding compounds were administered to the animals in the PO group by oral gavage at 10 mg/kg or 100 mg/kg. The animals in the IV group were allowed free access to food and water, and the animals in the PO group were fasted overnight before administration and were fed 4 h after administration. Throughout the experiment, the animals were allowed free access to water. Plasma samples were separately collected at 0.083 h (only group IV), 0.25 h, 0.5 h, 1 h, 2 h, 4 h, 8 h, and 24 h after administration. About 100 µL of blood was collected from the orbit of the animal, placed into a 1.5 mL anticoagulation centrifuge tube, and centrifuged at 8000 rpm and 4 °C for 10 min. The upper plasma sample was transferred to an EP tube. The plasma samples were stored in a refrigerator at -80 °C until sample analysis. Pharmacokinetic parameters of the drug were calculated based on the drug concentration-time data, including the peak concentration Cmax, peak time Tmax, clearance rate CL, steady state apparent volume of distribution Vss, area under drug-time curve AUC, elimination half-life t1/2, bioavailability, and the like. Data below the 80% lower limit of quantification were excluded from the calculation of pharmacokinetic parameters.

[2] = Pharmacokinetic assay in rats; format: in vivo, SD rats; conditions: rat
Protocol: In this experimental example, the pharmacokinetic behavior of the test compounds after administration by intravenous injection (IV) and oral gavage (PO) in SD rats was tested.
On the day of administration, rats were weighed for actual body weight, and the administration volume was calculated. Each compound was tested in two groups with 3 rats in each group; one group was subjected to administration by single intravenous injection, and the other group was subjected to administration by single oral gavage. The whole blood samples were collected via the jugular vein at prescribed time points (0.25 h, 0.5 h, 1 h, 2 h, 4 h, 8 h, and 24 h after administration). After the blood sample collection, the samples were immediately transferred to labeled commercial sample tubes containing K2-EDTA (0.85-1.15 mg), followed by centrifugation (3200× g, 4 °C, 10 min) and plasma collection. The plasma was transferred to a pre-cooled centrifuge tube, frozen in dry ice, and then stored in an ultra-low temperature freezer at -60 °C or lower until the LC-MS/MS analysis was performed.
Plasma concentrations were determined by the LC-MS/MS method. Plasma drug concentration data for the compounds were processed using a non-compartmental model in the WinNonlin Version 6.3 (Pharsight, Mountain View, CA) pharmacokinetic software. The relevant pharmacokinetic parameters were calculated by a linear-log trapezoidal method.

[3] = molecular target: T1, hERG Potassium Ion Channel (Homo sapiens, UniProt Q12809); test: Effect on hERG potassium ion channel (whole-cell patch clamp, HEK293 cells); format: cell-based; conditions: whole-cell patch clamp (Qpatch), room temperature
T1 construct: expressed in transfected cells; host or cells: HEK293
Protocol: HEK293 cells were cultured in a DMEM medium containing 10% fetal bovine serum and 0.8 mg/mL G418 at 37 °C with 5% CO2. The cells were digested by TrypLE™ Express and then centrifuged. The cell density was adjusted to 2 × 10^6 cells/mL. The cells were then gently mixed for 15 to 20 min using a shaker equilibrated at room temperature, and subjected to a patch clamp assay on a machine. The culture medium of the prepared cells was replaced with extracellular fluid. The intracellular fluid and the extracellular fluid were taken from the fluid pool and added to the intracellular fluid pool and the cell and test substance pool of the QPlate chip, respectively. The voltage stimulation of the whole-cell hERG potassium current was recorded by the whole-cell patch clamp, and the experimental data were collected and stored by Qpatch. […] The current detected in compound-free extracellular fluid for each cell served as its own control group, and the detection was repeated twice independently using at least two cells per concentration. […] For data analysis, the current after the action of each drug concentration and the current of the blank control were standardized ((Peak tail currentcompound)/(Peak tail currentvehicle)) [formula] , and then the inhibition rate corresponding to each drug concentration was calculated (1−(Peak tail currentcompound)/(Peak tail currentvehicle)) [formula] . […]

[4] = SD, plasma, 100 mg/kg, PO 100mpk

T1 sequence (Q12809 whole entry): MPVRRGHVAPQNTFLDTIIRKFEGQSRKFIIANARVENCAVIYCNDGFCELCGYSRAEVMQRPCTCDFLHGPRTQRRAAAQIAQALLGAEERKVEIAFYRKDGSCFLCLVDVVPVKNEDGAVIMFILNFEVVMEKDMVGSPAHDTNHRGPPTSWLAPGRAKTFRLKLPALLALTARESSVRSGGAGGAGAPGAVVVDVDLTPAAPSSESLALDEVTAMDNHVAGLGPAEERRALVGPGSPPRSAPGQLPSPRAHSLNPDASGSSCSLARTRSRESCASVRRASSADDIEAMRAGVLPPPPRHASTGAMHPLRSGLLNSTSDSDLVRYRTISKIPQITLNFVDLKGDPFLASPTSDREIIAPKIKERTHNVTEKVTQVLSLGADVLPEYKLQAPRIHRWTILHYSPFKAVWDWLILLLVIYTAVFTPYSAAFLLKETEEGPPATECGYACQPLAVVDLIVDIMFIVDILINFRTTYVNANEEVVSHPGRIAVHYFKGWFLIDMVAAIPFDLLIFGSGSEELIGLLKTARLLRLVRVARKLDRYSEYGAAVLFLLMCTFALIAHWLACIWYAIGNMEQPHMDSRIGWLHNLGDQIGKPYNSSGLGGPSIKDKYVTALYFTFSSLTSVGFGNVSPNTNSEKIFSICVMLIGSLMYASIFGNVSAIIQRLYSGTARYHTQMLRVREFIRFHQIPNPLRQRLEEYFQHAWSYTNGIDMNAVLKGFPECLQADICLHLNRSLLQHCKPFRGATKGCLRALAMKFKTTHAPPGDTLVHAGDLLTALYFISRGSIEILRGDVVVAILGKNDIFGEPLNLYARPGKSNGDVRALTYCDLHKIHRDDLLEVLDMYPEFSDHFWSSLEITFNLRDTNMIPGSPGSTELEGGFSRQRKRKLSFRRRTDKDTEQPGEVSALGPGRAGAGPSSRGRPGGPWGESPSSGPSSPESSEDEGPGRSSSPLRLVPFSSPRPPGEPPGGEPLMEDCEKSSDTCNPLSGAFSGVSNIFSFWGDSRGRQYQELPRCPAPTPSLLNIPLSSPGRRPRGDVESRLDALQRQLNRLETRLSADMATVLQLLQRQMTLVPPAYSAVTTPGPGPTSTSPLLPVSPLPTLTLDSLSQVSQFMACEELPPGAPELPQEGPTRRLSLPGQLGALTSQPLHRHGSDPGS

`Cn1ncc2c(N)nc3cnc(C(=O)N4CCOC[C@@H]4c4ccc(C(F)(F)F)cc4)cc3c21` [Control compound A, reference compound] showed an AUC(0-t) ([1]; 2 mg/kg, IV 2mpk) of 9.6 µM·h, an AUC(0-t) ([1]; 100 mg/kg, PO 100mpk) of 455 µM·h and a Cmax ([1]; 100 mg/kg, PO 100mpk) of 35.7 µM. For the same compound, the AUC(0-t) ([2]; SD, plasma, 2 mg/kg, IV 2mpk) was 4.75 µM·h, the AUC(0-t) [2, 4] was 122 µM·h and the Cmax [2, 4] was 5.42 µM. It also gave an F ([2]; PO 100mpk vs IV 2 mpk) of 51% and an IC50 [3] of 13 µM.
